From patent US10844064B2, “sGC stimulators” (Cyclerion Therapeutics, Inc., priority 2014, dated 2020)

Molecular target: T1, sGC enzyme (Homo sapiens, UniProt Q02108+Q02153)
T1 construct: host or cells: HEK293 expressing GloSensor 40F cGMP
T1 sequence (Q02108 1-690): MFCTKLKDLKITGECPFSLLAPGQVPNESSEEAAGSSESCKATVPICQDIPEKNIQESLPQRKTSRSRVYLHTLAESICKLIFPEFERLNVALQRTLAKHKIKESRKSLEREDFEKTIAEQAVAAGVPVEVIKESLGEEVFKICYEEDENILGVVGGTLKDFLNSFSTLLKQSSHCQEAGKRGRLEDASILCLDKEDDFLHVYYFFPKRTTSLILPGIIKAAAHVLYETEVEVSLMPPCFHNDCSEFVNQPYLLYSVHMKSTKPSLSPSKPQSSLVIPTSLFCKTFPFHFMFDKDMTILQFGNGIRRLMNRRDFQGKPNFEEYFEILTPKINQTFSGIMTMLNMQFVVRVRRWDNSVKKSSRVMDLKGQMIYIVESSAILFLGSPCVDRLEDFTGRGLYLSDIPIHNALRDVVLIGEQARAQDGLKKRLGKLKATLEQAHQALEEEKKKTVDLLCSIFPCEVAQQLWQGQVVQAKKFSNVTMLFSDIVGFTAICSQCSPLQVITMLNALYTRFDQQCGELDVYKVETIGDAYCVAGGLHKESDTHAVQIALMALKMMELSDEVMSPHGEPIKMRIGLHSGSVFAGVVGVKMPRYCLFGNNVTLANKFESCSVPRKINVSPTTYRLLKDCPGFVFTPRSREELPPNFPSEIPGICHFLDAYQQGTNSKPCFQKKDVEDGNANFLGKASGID
T1 sequence (Q02153 1-619): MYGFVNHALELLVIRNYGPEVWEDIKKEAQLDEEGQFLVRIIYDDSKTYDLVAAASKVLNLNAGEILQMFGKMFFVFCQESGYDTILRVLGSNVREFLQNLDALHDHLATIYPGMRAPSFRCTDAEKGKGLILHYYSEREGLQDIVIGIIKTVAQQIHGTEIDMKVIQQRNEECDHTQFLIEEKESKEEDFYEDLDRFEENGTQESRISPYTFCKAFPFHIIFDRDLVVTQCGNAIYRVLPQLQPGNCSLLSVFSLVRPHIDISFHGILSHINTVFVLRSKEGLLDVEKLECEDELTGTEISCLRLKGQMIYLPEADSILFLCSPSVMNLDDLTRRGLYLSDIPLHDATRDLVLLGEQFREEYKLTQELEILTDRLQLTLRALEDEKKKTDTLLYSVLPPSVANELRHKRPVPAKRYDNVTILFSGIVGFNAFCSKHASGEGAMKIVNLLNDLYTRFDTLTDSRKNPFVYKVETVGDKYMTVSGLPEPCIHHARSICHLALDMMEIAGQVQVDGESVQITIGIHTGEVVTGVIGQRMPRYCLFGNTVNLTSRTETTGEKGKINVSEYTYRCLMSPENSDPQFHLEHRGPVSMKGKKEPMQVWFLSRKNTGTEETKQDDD
Test: cGMP GloSensor cell-based assay, 384-well format (Example 2B)
Details: HEK293 GloSensor 40F cGMP cells, 10 μM DETA-NONOate; 50% of high control response (Compound Y); read-out: sGC_HEK_GloSensor EC50/IC50 Abs (Norm) (nM) Binned
Experimental: (§1) Data were normalized to a high control using the following equation: 100*(Sample—Low Control)/(High Control—Low Control), where the low control is the average of 16 samples treated with 1% DMSO, and the high control is the average of 16 samples treated with 30 μM of Compound Y depicted below. Data were fit using a 4-parameter fit (log(agonist) vs. response variable slope) using GraphPad Prism Software v.5. n=2 for all compounds. […] Compounds failing to elicit a minimum response of 50% are reported as >30 μM. For compounds run in duplicate or n higher than 2, the result herein given is the geometric mean of the several results obtained.
Human embryonic kidney cells (HEK293) cells expressing GloSensor™ 40F cGMP (Part No: CS182801, Promega) were used to evaluate the activity of test compounds. The luminescent biosensors (engineered luciferase) that were incorporated into these cells detect cGMP formed by the compounds stimulating the sGC enzyme and emit luminescence.
cGMP GloSensor cells were maintained in Dulbecco's Modification of Eagle's Medium (DMEM) supplemented with fetal bovine serum (FBS) (10% final) and hygromycine (200 μg/ml). The day before assay, cells were plated in DMEM with 10% FBS in a 50 μL volume at a density of 1.5×10^4 cells/well in a poly-D-lysine coated 384-well flat white-bottom plate (Corning Cat No 35661). Cells were incubated overnight at 37° C. in a humidified chamber with 5% CO2. The next day, medium was removed and cells were replaced with 40 μl/well of GloSensor™, […] (Promega Cat No E1291). Cells were treated for 90 minutes at 25° C. to allow the substrate to equilibrate in the cells. Test compounds and Diethylenetriamine NONOate (DETA-NONOate) was diluted to […] in serum-free CO2 independent medium and serally diluted at 4× dilutions to create 5× dose curve from which 10 ul was added to the wells (x uM concentration for test compound solution and 10 μM concentration for DETA-NONOate solution; wherein x is one of the following final concentrations).
For the kinetics studies, luminescense was measured right away for 0.2 sec per well with Envision (Perkin Elmer model No). For endpoint SAR screening, data were collected after 55 min incubation at room temperature.
Data analysis was carried out as indicated above in Example 2A.

SMILES | EC50 [nM]
COc1cc(-c2ncc3c(n2)NC(=O)C3(C)C)nn1Cc1ccc(F)cc1 [Compound I-57] | 100 to 1000
CCCOc1cc(-c2ncc3c(n2)NC(=O)C3(C)C)nn1Cc1ccccc1F [Compound I-35] | > 1000
CC1(C)C(=O)Nc2nc(-c3cc(C#N)n(Cc4ccccc4F)n3)nnc21 [Compound I-69] | 100 to 1000
COc1cc(-c2ncc3c(n2)NC(=O)C3(C)C)nn1Cc1cccc(Cl)c1 [Compound I-59] | 100 to 1000
CC1(C)C(=O)Nc2nc(-c3ccn(Cc4ccccc4F)n3)nc(O)c21 [Compound I-79] | > 1000
Cn1c(=O)[nH]c2nc(-c3cc(-c4ccon4)n(Cc4ccccc4F)n3)ncc21 [Compound I-65] | > 30000
Cc1nc(-c2ccn(Cc3ccccc3F)n2)nc2c1C(C)(C)C(=O)N2 [Compound I-77] | > 1000
CC1(C)C(=O)Nc2nc(-c3cc(O)n(Cc4ccccc4F)n3)ncc21 [Compound I-29] | > 1000
CC1(C)C(=O)Nc2nnc(-c3cc(-c4ccon4)n(Cc4ccccc4F)n3)nc21 [Compound I-68] | > 1000
CC1(C)C(=O)Nc2nc(-c3ccn(Cc4ccccc4F)n3)nc(N)c21 [Compound I-73, 4-amino-2-(1-(2-fluorobenzyl)-1H-pyrazol-3-yl)-5,5-dimethyl-5H-pyrrolo[2,3-d]pyrimidin-6(7H)-one] | 100 to 1000
CC1(C)C(=O)Nc2nc(-c3ccn(Cc4ccccc4F)n3)ncc21 [Compound I-74] | 100 to 1000
CC1(C)C(=O)Nc2nc(-c3cc(C#N)n(Cc4ccccc4F)n3)ncc21 [Compound I-45] | < 100
COc1cc(-c2nc(N)c3c(n2)NC(=O)C3(C)C)nn1Cc1ccccc1 [Compound I-51, 4-amino-2-(1-benzyl-5-methoxy-1H-pyrazol-3-yl)-5,5-dimethyl-5H-pyrrolo-[2,3-d]pyrimidin-6(7H)-one] | < 100

Molecular target: T2, soluble guanylate cyclase (sGC) (Homo sapiens, UniProt Q02108+Q02153)
T2 construct: endogenously expressing soluble guanylate cyclase (sGC); endogenous in cells; host or cells: HEK293
T2 sequence (Q02108 1-690): T1 sequence (Q02108 1-690)
T2 sequence (Q02153 1-619): T1 sequence (Q02153 1-619)
Test: sGC-HEK-cGMP assay with LC/MS detection (Example 2A)
Assay type: cell-based
Details: HEK293 cells, 10 μM DETA-NONOate, 20 min; concentration eliciting 50% of high control response (30 μM Compound Y); read-out: Absolute EC50 (nM) - binned
Experimental: Human embryonic kidney cells (HEK293), endogenously expressing soluble guanylate cyclase (sGC), were used to evaluate the activity of test compounds. Compounds stimulating the sGC enzyme should cause an increase in the intracellular concentration of cGMP. HEK 293 cells were seeded in Dulbecco's Modification of Eagle's Medium supplemented with fetal bovine serum (10% final) and penicillin (100 U/mL)/streptomycin (100 μg/mL) in a 50 μL, volume at a density of 1.5×10^4 cells/well in a poly-D-lysine coated 384 well flat bottom plate. Cells were incubated overnight at 37° C. in a humidified chamber with 5% CO2. Medium was aspirated and cells were washed with 1× Hank's Buffered Saline Salt Solution (50 μL). Cells were then incubated for 15 minutes at 37° C. with 50 μL of a 0.5 mM 3-isobutyl-1-methylxanthine (IBMX) solution. Test article and Diethylenetriamine NONOate (DETA-NONOate) solutions (x μM concentration for test article solution and 10 μM concentration for DETA-NONOate solution; wherein x is one of the following concentrations);
were then added to the assay mixture and the resulting mixture incubated at 37° C. for 20 minutes. After the 20 minute incubation, the assay mixture was aspirated and 10% acetic acid containing 150 ng/mL+3-cGMP (internal standard for LCMS) (50 μL) was added to the cells. The plate was incubated at 4° C. for 30 minutes in the acetic acid solution to stop the reaction and lyse the cells. The plates were then centrifuged at 1,000 g for 3 minutes at 4° C. and the supernatant transferred to a clean reaction plate for LCMS analysis.
cGMP concentrations were determined from each sample using the LCMS conditions below (Table 2) and calculated standard curve. The standard curve was prepared in 10% acetic acid with 150 ng/mL+3cGMP (isotopically labelled cGMP with a weight 3 units higher than wild type) with the following final concentrations of cGMP in ng/mL: 1, 5, 10, 50, 100, 250, 500, 1000, 2000.
as §1

SMILES | EC50 [nM]
CC1(C(=O)NC2CC2)C(=O)Nc2nc(-c3ccn(Cc4ccccc4F)n3)nc(N)c21 (stereo not shown) [Compound I-14, 4-amino-N-cyclopropyl-2-(1-(2-fluorobenzyl)-1H-pyrazol-3-yl)-5-methyl-6-oxo-6,7-dihydro-5H-pyrrolo[2,3-d]pyrimidine-5-carboxamide] | > 1000
CC1(C)C(=O)Nc2nc(-c3cc(-c4ccon4)n(Cc4ccccc4F)n3)nc(NCCO)c21 [Compound I-6] | 100 to 1000
Fc1ccccc1Cn1nc(-c2ncc3[nH]nnc3n2)cc1-c1ccon1 [Compound I-15] | > 1000
CCOC(=O)C1(C)C(=O)Nc2nc(-c3ccn(Cc4ccccc4F)n3)nc(N)c21 (stereo not shown) [Compound I-13, ethyl 4-amino-2-(1-(2-fluorobenzyl)-1H-pyrazol-3-yl)-5-methyl-6-oxo-6,7-dihydro-5H-pyrrolo[2,3-d]pyrimidine-5-carboxylate] | 100 to 1000
COc1cc(-c2nc(N)c3c(n2)NC(=O)C3(C)c2nnc(C)o2)nn1Cc1ccccc1F (stereo not shown) [Compound I-1, 4-amino-2-(1-(2-fluorobenzyl)-5-methoxy-1H-pyrazol-3-yl)-5-methyl-5-(5-methyl-1,3,4-oxadiazol-2-yl)-5H-pyrrolo[2,3-d]pyrimidin-6(7H)-one] | < 100
CCOC(=O)C1(C)C(=O)Nc2nc(-c3cc(-c4ccon4)n(Cc4ccccc4F)n3)ncc21 (stereo not shown) [Compound I-18] | 100 to 1000
CCOC(=O)C1(C)C(=O)Nc2nc(-c3cc(COC)n(Cc4ccccc4F)n3)nc(N)c21 (stereo not shown) [Compound I-21] | > 1000
CC(=O)c1cc(-c2nc(N)c3c(n2)NC(=O)C3(C)C(N)=O)nn1Cc1ccccc1F (stereo not shown) [Compound I-20] | 100 to 1000
OCCn1nnc2cnc(-c3cc(-c4ccon4)n(Cc4ccccc4F)n3)nc21 [Compound I-2] | > 1000
CC1(C(=O)NCCO)C(=O)Nc2nc(-c3cc(-c4ccon4)n(Cc4ccccc4F)n3)nc(NCCO)c21 (stereo not shown) [Compound I-7] | > 1000
CCOC(=O)C1(C)C(=O)Nc2nc(-c3cc(-c4ccon4)n(Cc4ccccc4F)n3)nc(Br)c21 (stereo not shown) [Compound I-17] | 100 to 1000
CC1(C(N)=O)C(=O)Nc2nc(-c3cc(-c4ccon4)n(Cc4ccccc4F)n3)ncc21 (stereo not shown) [Compound I-16] | > 1000
CC1(C)C(=O)N(CCO)c2nc(-c3cc(-c4ccon4)n(Cc4ccccc4F)n3)nnc21 [Compound I-4] | > 1000
OC(Cn1nnc2cnc(-c3cc(-c4ccon4)n(Cc4ccccc4F)n3)nc21)(C(F)(F)F)C(F)(F)F [Compound I-3] | > 1000
COCc1cc(-c2nc(N)c3c(n2)NC(=O)C3(C)C(N)=O)nn1Cc1ccccc1F (stereo not shown) [Compound I-22] | > 1000
COc1cc(-c2nc(N)c3c(n2)NC(=O)C3(C)C)nn1Cc1ccccc1F [Compound I-23] | 100 to 1000
CC1(C)C(=O)Nc2nc(-c3cc(-c4ccon4)n(Cc4ccccc4F)n3)nc(NCC(O)(C(N)=O)C(F)(F)F)c21 (stereo not shown) [Compound I-8] | 100 to 1000
COC(=O)NS(=O)(=O)Nc1nc(-c2cc(-c3ccon3)n(Cc3ccccc3F)n2)nc2c1C(C)(C#N)C(=O)N2 (stereo not shown) [Compound I-5] | 100 to 1000
